Results published in patent US7989480B2, “Aryl amino acid derivatives as inhibitors for treating inflammation” (Decode Genetics EHF, priority 2006, dated 2011).
Counter-ions that a name gives are not always drawn. Like-named read-outs stand apart in the source and are kept apart here.

What was measured:
[1] = target: T1, LTA4H (leukotriene A4 hydrolase) (Homo sapiens, UniProt P09960); test: LTA4H enzyme inhibition (EnzIC50); assay type: biochemical
T1 sequence (P09960 1-611): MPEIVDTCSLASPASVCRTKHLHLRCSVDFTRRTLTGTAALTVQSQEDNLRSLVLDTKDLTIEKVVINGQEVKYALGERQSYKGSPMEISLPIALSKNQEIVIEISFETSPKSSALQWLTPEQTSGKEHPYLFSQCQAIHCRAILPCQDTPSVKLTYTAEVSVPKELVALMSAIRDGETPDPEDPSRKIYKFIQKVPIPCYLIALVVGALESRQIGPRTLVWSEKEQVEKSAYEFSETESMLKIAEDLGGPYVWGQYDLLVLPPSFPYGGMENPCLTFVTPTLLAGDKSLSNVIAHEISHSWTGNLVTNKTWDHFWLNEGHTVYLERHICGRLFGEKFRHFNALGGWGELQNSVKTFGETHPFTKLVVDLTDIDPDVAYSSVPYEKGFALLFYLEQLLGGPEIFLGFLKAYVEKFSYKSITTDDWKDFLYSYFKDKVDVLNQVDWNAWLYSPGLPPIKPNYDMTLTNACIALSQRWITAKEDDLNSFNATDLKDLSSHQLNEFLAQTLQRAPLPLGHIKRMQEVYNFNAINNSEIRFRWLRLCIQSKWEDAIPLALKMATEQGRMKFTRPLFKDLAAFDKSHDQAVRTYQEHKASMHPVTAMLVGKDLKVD

hWB = hWB assay; assay type: cell-based; conditions: Homo sapiens
[2] = test system: ionophore-induced LTB4 production; conditions: oral administration, mouse blood ex vivo; cited from earlier work
[3] = test system: ionophore-induced LTB4 production; conditions: oral administration, rat peritoneum in vivo; cited from earlier work
colitis symptoms = conditions: eight weeks of treatment, primate model; cited from earlier work

Structure (SMILES): N[C@@H](Cc1ccc(Oc2ccc(Oc3ccccc3)cc2)cc1)C(=O)O [Example 6, (2S)-2-Amino-3-[4-(4-phenoxyphenoxy)phenyl]propanoic acid hydrochloride]
- IC50 [1]: < 5 µM
- IC50 (hWB): < 5 µM

Structure (SMILES): CN(CCCOc1ccc(Cc2ccccc2)cc1)CCC(=O)O.Cl [SC57461]
- inhibition of ionophore-induced LTB4 production [2]: inhibition of ionophore-induced LTB4 production
- inhibition of ionophore-induced LTB4 production [3]: inhibition of ionophore-induced LTB4 production
- colitis symptoms (colitis symptoms): significantly improved colitis symptoms

Structure (SMILES): COc1ccc(Oc2ccc(C[C@H](N)CO)cc2)cc1 [Example 19, (S)-2-Amino-3-[4-(4-methoxyphenoxy)-phenyl]-propan-1-ol hydrochloric acid salt]
- IC50 [1]: < 5 µM

Structure (SMILES): CN[C@H](CO)Cc1ccc(Oc2ccc(Cc3ccccc3)cc2)cc1 [Example 9, (2S)-3-[4-(4-Benzylphenoxy)phenyl]-2-(methylamino)propan-1-ol hydrochloride]
- IC50 [1]: 5 to 20 µM

Structure (SMILES): N[C@@H](CO)Cc1ccc(Oc2ccc(Oc3ccccc3)cc2)cc1 [Example 3, (R)-2-Amino-3-[4-(4-phenoxy-phenoxy)-phenyl]-propan-1-ol hydrochloride]
- IC50 [1]: < 5 µM

Structure (SMILES): N[C@@H](Cc1ccc(Oc2ccc(Oc3ccccc3)cc2)cc1)C(O)C(=O)O (stereo partly drawn) [Example 10, (3S)-3-Amino-2-hydroxy-4-[4-(4-phenoxyphenoxy)phenyl]butanoic acid hydrochloride]
- IC50 [1]: < 5 µM

Structure (SMILES): COC(=O)[C@H](N)Cc1ccc(Oc2ccc(Oc3ccccc3)cc2)cc1 [Example 1, (R)-2-Amino-3-[4-(4-phenoxy-phenoxy)-phenyl]-propionic acid methyl ester hydrochloride]
- IC50 [1]: 5 to 20 µM

Structure (SMILES): N[C@H](CO)Cc1ccc(Oc2ccc(Cc3ccccc3)cc2)cc1 [Example 20, (S)-2-Amino-3-[4-(4-benzylphenoxy)-phenyl]-propan-1-ol hydrochloric acid salt]
- IC50 [1]: < 5 µM
- IC50 (hWB): < 5 µM

Structure (SMILES): N[C@@H](C(=O)O)c1ccc(Oc2ccc(Cc3ccccc3)cc2)cc1 [Example 15, (R)-Amino-[4-(4-benzyl-phenoxy)-phenyl]-acetic acid hydrochloride]
- IC50 [1]: < 5 µM

Structure (SMILES): N[C@H](CNO)Cc1ccc(Oc2ccc(Cl)cc2)cc1 [Example 21, N-{(S)-2-amino-3-[4-(4-chloro-phenoxy)-phenyl]-propyl}-hydroxyamine HCl salt]
- IC50 [1]: < 5 µM

Structure (SMILES): N[C@H](CNO)Cc1ccc(Oc2ccc(Oc3ccc(Cl)cc3)cc2)cc1 [Example 14]
- IC50 [1]: < 5 µM
- IC50 (hWB): < 5 µM

Structure (SMILES): N[C@@H](Cc1ccc(Oc2ccc(Cc3ccc(Cl)cc3)cc2)cc1)C(=O)O [Example 5, S)-2-Amino-3-{4-[4-(4-chloro-benzyl)-phenoxy]-phenyl}-propionic acid hydrochloride]
- IC50 [1]: 5 to 20 µM

Structure (SMILES): N[C@@H](Cc1ccc(Oc2ccc(Oc3ccc(-c4nccs4)cc3)cc2)cc1)C(=O)O [Example 11, (S)-2-Amino-3-{4-[4-(4-thiazol-2-yl-phenoxy)-phenoxy]-phenyl}-propionic acid]
- IC50 [1]: < 5 µM

Structure (SMILES): CC(=O)N(O)C[C@@H](N)Cc1ccc(Oc2ccc(Cl)cc2)cc1 [Example 22, N-{(S)-2-amino-3-[4-(4-chloro-phenoxy)-phenyl]-propyl}-N-hydroxy-acetamide HCl salt]
- IC50 [1]: < 5 µM
- IC50 (hWB): < 5 µM

Structure (SMILES): N[C@H](CO)Cc1ccc(Oc2ccc(Oc3ccc(-c4nccs4)cc3)cc2)cc1 [Example 12, (S)-2-Amino-3-{4-[4-(4-thiazol-2-yl-phenoxy)-phenoxy]-phenyl}-propan-1-ol]
- IC50 [1]: < 5 µM
- IC50 (hWB): < 5 µM

Structure (SMILES): CN[C@H](CO)Cc1ccc(Oc2ccc(Oc3ccccc3)cc2)cc1 [Example 8, (2S)-2-(Methylamino)-3-[4-(4-phenoxyphenoxy)phenyl]propan-1-ol hydrochloride]
- IC50 [1]: 5 to 20 µM

Structure (SMILES): COC(=O)[C@H](N)Cc1ccc(Oc2ccc(C(=O)c3ccccc3)cc2)cc1 [Example 2, (R)-2-Amino-3-[4-(4-benzoyl-phenoxy)-phenyl]-propionic acid methyl ester hydrochloride]
- IC50 [1]: < 5 µM

Structure (SMILES): N[C@H](CO)Cc1ccc(Oc2ccc(Oc3ccccc3)cc2)cc1 [Example 4, (S)-2-Amino-3-[4-(4-phenoxy-phenoxy)-phenyl]-propan-1-ol hydrochloride]
- IC50 [1]: < 5 µM
- IC50 (hWB): 5 to 20 µM
